According to ChEMBL document CHEMBL5038653, “A Brain-Penetrant and Bioavailable Pyrazolopiperazine BACE1 Inhibitor Elicits Sustained Reduction of Amyloid β In Vivo” (ACS Med Chem Lett, 2022):
Converted amounts (≈) assume the structure as drawn. The source made the active and inactive calls. No cut-off for these calls is given here.

Columns and labels:
Beta-secretase 1 = Beta-secretase 1 (Homo sapiens, UniProt P56817); assay: Inhibition of BACE1 (1 to 454 residues) (unknown origin) using APP harboring Swedish Lys/Met mutant-derived peptide as substrate by FRET assay
Beta-secretase 1, sequence (P56817 whole entry, the tested form may be a part): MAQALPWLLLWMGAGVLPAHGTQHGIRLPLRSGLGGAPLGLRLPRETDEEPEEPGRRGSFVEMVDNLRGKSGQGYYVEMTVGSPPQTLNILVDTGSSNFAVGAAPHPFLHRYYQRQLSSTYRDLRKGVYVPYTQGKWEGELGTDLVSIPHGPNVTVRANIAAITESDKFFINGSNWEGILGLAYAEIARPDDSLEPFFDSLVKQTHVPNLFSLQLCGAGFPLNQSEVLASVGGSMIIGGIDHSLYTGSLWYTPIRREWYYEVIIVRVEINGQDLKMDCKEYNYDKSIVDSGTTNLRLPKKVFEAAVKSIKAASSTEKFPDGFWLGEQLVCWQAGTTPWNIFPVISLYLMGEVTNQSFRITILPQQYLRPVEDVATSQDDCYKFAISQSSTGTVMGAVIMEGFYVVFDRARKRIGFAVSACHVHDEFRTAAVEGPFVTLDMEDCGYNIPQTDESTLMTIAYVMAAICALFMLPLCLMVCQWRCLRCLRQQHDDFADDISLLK

[1] = target: Voltage-gated inwardly rectifying potassium channel KCNH2 (Homo sapiens, UniProt Q12809); assay: Inhibition of hERG expressed in HEK293 cells at -80 mV holding potential by automated patch-clamp method; format: toxicity, cell-based
Voltage-gated inwardly rectifying potassium channel KCNH2, sequence (Q12809 whole entry): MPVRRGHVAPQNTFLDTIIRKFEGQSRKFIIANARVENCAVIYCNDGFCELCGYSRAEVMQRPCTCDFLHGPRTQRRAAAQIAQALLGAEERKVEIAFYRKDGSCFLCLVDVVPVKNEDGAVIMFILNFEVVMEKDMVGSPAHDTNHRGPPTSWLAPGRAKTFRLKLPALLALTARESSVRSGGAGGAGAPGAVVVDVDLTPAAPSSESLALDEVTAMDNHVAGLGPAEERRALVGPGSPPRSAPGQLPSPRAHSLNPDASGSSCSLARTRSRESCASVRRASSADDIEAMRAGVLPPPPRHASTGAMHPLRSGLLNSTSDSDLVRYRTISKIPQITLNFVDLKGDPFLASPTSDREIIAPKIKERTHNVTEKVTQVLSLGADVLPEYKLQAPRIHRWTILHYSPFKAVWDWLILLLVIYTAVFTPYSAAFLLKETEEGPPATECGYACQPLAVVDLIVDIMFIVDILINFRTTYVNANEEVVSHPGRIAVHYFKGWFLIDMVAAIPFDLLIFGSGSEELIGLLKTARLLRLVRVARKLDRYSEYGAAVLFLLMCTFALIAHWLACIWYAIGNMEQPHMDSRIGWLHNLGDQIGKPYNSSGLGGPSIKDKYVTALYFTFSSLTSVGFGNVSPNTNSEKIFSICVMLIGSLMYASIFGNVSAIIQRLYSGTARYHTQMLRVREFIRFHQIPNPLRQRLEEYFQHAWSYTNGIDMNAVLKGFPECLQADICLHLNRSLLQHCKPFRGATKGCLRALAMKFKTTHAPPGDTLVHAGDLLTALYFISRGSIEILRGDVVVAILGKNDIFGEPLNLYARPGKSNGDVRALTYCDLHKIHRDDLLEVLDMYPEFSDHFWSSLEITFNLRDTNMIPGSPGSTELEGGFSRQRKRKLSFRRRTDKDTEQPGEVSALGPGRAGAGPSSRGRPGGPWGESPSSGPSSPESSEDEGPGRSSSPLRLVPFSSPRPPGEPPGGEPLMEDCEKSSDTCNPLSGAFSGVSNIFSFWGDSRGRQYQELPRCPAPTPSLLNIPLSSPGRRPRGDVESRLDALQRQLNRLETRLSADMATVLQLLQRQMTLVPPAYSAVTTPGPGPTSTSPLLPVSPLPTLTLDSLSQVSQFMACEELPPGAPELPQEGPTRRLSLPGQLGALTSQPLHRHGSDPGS

MDR1 = assay: Efflux ratio of apparent permeability in dog MDCK-MDR1 cells; format: ADME, cell-based, Canis lupus familiaris
hERG (KCNH2) = hERG (KCNH2) (Homo sapiens, UniProt Q12809); assay: Inhibition of hERG expressed in HEK293 cells at 3 uM at -80 mV holding potential by automated patch-clamp method; format: toxicity, cell-based; conditions: HEK293 cells expressing hERG
hERG (KCNH2), sequence (Q12809 whole entry): as above

Cytochrome P450 3A4 [2] = target: T1, Cytochrome P450 3A4 (Homo sapiens, UniProt P08684); assay: Inhibition of human CYP3A4 by fluorescence plate reader analysis; format: ADME
T1 sequence (P08684 whole entry): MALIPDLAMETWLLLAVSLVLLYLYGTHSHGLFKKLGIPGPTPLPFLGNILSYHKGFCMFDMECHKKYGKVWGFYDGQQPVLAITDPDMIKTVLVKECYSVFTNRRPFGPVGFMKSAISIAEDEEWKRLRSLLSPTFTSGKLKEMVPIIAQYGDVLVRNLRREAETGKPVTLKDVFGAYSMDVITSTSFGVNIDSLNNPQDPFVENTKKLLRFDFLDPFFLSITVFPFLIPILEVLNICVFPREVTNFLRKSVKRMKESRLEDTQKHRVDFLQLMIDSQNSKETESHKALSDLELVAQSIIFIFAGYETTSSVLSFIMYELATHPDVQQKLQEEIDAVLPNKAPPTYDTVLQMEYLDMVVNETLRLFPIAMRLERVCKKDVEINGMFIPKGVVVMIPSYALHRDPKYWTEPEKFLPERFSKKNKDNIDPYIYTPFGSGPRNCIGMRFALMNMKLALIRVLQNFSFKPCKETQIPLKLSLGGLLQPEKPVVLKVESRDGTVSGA

[3] = Ratio of apparent permeability across apical to basolateral side in the presence of P-gp inhibitor elacridar to the absence of P-gp inhibitor elacridar in dog MDCK-MDR1 cells at 5 uM incubated for 120 mins; format: ADME, cell-based, Canis lupus familiaris; conditions: 2 h
[4] = Dissociation constant, pKa of the compound by fast UV-spectrometric titration analysis; format: physicochemical
[5] = Metabolic stability in mouse liver microsomes assessed as metabolite formation after 15 mins in presence of NADPH by LC-MS analysis; format: ADME, Microsome; conditions: 0.25 h
[6] = Metabolic stability in human liver microsomes assessed as metabolite formation after 15 mins in presence of NADPH by LC-MS analysis; format: ADME, Microsome; conditions: 0.25 h
Cytochrome P450 3A4 [7] = target: T1, Cytochrome P450 3A4; assay: Inhibition of human CYP3A4 using midazolam as substrate by fluorescence plate reader analysis; format: ADME; conditions: for inhibition (INH): human
[8] = Free drug concentration in dog plasma measured after 4.5 hrs by HPLC-MS/MS method; format: ADME, cell-free, Canis lupus familiaris
Cytochrome P450 2C8 = target: T2, Cytochrome P450 2C8 (Homo sapiens, UniProt P10632); assay: Inhibition of human CYP2C8 by fluorescence plate reader analysis; format: ADME
T2 sequence (P10632 whole entry): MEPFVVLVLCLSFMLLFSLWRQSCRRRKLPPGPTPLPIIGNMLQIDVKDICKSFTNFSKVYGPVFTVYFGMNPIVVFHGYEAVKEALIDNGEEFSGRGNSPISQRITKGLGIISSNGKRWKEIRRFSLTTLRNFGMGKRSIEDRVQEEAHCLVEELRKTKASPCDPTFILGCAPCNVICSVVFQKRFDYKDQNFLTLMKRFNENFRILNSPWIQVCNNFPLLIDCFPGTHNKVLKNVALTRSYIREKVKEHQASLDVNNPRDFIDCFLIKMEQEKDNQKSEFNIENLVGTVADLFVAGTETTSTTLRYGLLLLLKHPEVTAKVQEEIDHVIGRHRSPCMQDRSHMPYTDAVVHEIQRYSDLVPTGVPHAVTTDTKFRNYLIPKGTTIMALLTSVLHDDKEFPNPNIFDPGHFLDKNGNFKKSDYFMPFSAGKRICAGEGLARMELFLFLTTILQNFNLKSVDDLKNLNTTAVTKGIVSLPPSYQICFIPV

Cytochrome P450 1A2 = target: T3, Cytochrome P450 1A2 (Homo sapiens, UniProt P05177); assay: Inhibition of human CYP1A2 by fluorescence plate reader analysis; format: ADME
T3 sequence (P05177 whole entry): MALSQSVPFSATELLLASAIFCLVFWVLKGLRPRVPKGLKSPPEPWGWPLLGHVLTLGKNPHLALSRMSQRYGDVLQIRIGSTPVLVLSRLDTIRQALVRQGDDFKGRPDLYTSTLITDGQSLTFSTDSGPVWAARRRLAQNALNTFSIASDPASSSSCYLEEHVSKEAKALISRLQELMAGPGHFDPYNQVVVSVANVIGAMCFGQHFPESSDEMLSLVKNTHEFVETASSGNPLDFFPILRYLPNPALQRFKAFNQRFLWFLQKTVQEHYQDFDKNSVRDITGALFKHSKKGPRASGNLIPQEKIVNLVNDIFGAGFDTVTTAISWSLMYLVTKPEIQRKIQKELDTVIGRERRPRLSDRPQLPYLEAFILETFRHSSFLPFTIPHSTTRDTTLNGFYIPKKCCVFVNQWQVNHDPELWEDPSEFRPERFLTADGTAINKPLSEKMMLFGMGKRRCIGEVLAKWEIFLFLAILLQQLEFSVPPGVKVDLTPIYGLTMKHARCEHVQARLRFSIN

[9] = Free drug concentration in rat brain measured after 5 hrs by HPLC-MS/MS method; format: ADME, tissue-based
Cytochrome P450 2C19 = Cytochrome P450 2C19 (Homo sapiens, UniProt P33261); assay: Inhibition of human CYP2C19 by fluorescence plate reader analysis; format: ADME
Cytochrome P450 2C19, sequence (P33261 whole entry): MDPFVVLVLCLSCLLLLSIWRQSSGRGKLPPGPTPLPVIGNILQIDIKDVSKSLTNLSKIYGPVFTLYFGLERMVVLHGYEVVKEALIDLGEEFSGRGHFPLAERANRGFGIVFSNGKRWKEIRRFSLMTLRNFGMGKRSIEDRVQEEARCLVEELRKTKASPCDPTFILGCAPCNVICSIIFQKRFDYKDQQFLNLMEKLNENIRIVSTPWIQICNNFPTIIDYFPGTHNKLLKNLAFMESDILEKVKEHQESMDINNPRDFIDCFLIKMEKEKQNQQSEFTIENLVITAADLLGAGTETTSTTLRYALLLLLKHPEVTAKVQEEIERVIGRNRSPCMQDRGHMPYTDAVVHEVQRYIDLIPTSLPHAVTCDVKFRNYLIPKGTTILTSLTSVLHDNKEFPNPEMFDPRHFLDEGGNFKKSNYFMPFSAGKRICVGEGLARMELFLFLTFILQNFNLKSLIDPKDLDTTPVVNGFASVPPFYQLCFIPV

Cytochrome P450 2C9 = Cytochrome P450 2C9 (Homo sapiens, UniProt P11712); assay: Inhibition of human CYP2C9 by fluorescence plate reader analysis; format: ADME
Cytochrome P450 2C9, sequence (P11712 whole entry): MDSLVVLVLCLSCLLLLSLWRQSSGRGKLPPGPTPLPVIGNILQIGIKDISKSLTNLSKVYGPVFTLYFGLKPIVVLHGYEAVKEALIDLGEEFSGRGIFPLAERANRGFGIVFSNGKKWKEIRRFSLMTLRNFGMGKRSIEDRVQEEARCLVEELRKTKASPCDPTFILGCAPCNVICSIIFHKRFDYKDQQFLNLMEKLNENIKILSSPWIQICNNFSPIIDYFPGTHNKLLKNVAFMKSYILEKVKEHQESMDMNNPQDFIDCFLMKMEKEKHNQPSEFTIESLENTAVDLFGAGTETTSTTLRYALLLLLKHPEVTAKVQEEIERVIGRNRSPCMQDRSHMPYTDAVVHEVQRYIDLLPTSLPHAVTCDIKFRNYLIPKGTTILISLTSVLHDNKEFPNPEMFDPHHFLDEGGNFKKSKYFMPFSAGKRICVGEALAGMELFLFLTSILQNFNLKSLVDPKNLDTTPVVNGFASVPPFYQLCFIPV

[10] = Total plasma concentration in Beagle dog at 2.5 mg/kg, po; format: ADME, organism-based, Canis lupus familiaris; conditions: in vivo
[11] = Half life in Beagle dog at 2.5 mg/kg, po; format: ADME, organism-based, Canis lupus familiaris; conditions: in vivo
[12] = In vivo inhibition of BACE1 in Beagle dog assessed as reduction of amyloid beta (1 to 42 residues) levels in CSF administered orally by electrochemiluminescence assay; format: functional, organism-based, Canis lupus familiaris; conditions: Canis lupus familiaris, Beagle
Cytochrome P450 3A4 [13] = target: T1, Cytochrome P450 3A4; assay: Time dependent inhibition of human CYP3A4 using testosterone as substrate by fluorescence plate reader analysis; format: ADME
Canis lupus familiaris = assay: In vivo inhibition of BACE1 in Beagle dog assessed as reduction of amyloid beta (1 to 42 residues) levels in CSF at 2.5 mg/kg, po measured after 24 hrs by electrochemiluminescence assay; format: functional, organism-based
[14] = Free drug concentration in human plasma measured after 4.5 hrs by HPLC-MS/MS method; format: ADME, cell-free
[15] = Free drug concentration in mouse plasma measured after 4.5 hrs by HPLC-MS/MS method; format: ADME, cell-free
Cytochrome P450 3A4 [16] = target: T1, Cytochrome P450 3A4; assay: Inhibition of human CYP3A4 using testosterone as substrate by fluorescence plate reader analysis; format: ADME

| Compound | IC50 (Beta-secretase 1) [µM] | IC50 [1] [µM] | efflux ratio (MDR1) | IC50 (Cytochrome P450 3A4 [2]) [µM] | other results |
| --- | --- | --- | --- | --- | --- |
| C[C@@]1(c2cc(NC(=O)c3ccc(F)cn3)ccc2F)Cn2nc(C#N)cc2C(N)=N1 | 0.0028 | 3.3 | 7 | – | – |
| C[C@@]1(c2cc(NC(=O)c3ccc(C#N)cn3)ccc2F)Cn2nc(C#N)cc2C(N)=N1 | 0.0017 | 4.6 | 15.2 | – | inhibition at 3 µM (hERG (KCNH2)): 71% |
| C[C@@]1(c2cc(NC(=O)c3ccc(C#N)cn3)ccc2F)Cn2ccnc2C(N)=N1 | – | – | – | – | inhibition at 3 µM (hERG (KCNH2)): 76% |
| COc1cnc(C(=O)Nc2ccc(F)c([C@]3(C)Cn4c(C#N)cnc4C(N)=N3)c2)cn1 | 0.0055 | > 10 | – | 3.1 | – |
| C[C@@]1(c2cc(NC(=O)c3ccc(C#N)cn3)ccc2F)Cn2cc(C#N)nc2C(N)=N1 | 0.013 | 6.6 | – | – | Ratio [3]: 16.8; pKa [4]: 7; Drug metabolism [5]: 95%; Drug metabolism [6]: 3% |
| CC(C)(C)OC(=O)Nc1ccc(F)c([C@]2(C)Cn3c(C#N)cnc3C(N)=N2)c1 | – | – | – | – | inhibition (INH) (Cytochrome P450 3A4 [7]): Active |
| C[C@@]1(c2cc(NC(=O)c3ccc(F)cn3)ccc2F)Cn2c(C#N)cnc2C(N)=N1 | 0.0115 | > 10 | – | 4.4 | inhibition (INH) (Cytochrome P450 3A4 [7]): Active |
| C[C@@]1(c2cc(NC(=O)c3ccc(C#N)cn3)ccc2F)Cn2c(C#N)cnc2C(N)=N1 | 0.0037 | > 10 | – | 6.7 | fraction unbound at 4.5 h [8]: 0.32; Ratio [3]: 9.3; IC50 (Cytochrome P450 2C8): > 10 µM; IC50 (Cytochrome P450 1A2): > 10 µM; fraction unbound at 5 h [9]: 0.15; IC50 (Cytochrome P450 2C19): > 10 µM; IC50 (Cytochrome P450 2C9): > 10 µM; IC50 (Cytochrome P450 3A4 [7]): 6.7 µM; concentration [10]: 72 nM; half-life [11]: 8 h; EC50 [12]: 0.03 µg/mL (≈ 0.0724 µM); IC50 (Cytochrome P450 3A4 [13]): 0.27 µM; inhibition (Canis lupus familiaris): inactive; pKa [4]: 7.2; fraction unbound at 4.5 h [14]: 0.2; Drug metabolism [5]: 81%; Drug metabolism [6]: 34%; fraction unbound at 4.5 h [15]: 0.06; IC50 (Cytochrome P450 3A4 [16]): 1.5 µM |
| C[C@@]1(c2cc(NC(=O)c3cnc(C(F)F)cn3)ccc2F)Cn2nc(C#N)cc2C(N)=N1 | 0.0037 | > 10 | 11.5 | – | – |
| C[C@@]1(c2cc(NC(=O)c3cnc(OCF)cn3)ccc2F)Cn2nc(C#N)cc2C(N)=N1 | 0.0023 | > 10 | 8.5 | – | – |
| C[C@@]1(c2cc(NC(=O)c3ccc(OC(F)F)cn3)ccc2F)Cn2nc(C#N)cc2C(N)=N1 | 0.0014 | 6.6 | 7 | – | – |
| C[C@@]1(c2cc(NC(=O)c3ccc(Cl)cn3)ccc2F)Cn2c(C#N)cnc2C(N)=N1 | 0.0026 | > 10 | – | 0.9 | inhibition (INH) (Cytochrome P450 3A4 [7]): Active |
| Cc1nc(C(=O)Nc2ccc(F)c([C@]3(C)Cn4nc(C#N)cc4C(N)=N3)c2)co1 | 0.0045 | > 10 | 19.4 | – | – |
